Source: the NIST ThermoML archive (doi:10.1021/acs.jced.6b00230)
Numbers after ± are expanded uncertainties.

Tests used:
[1] = Crystal
[2] = Molar enthalpy of transition or fusion; conditions: Crystal; DSC

In the case of `O=C1NC(=O)c2cc([N+](=O)[O-])ccc21` [4-nitrophthalimide], the mass density ([1]; 298.15 K, 101.33 kPa, Buoyancy - hydrostatic balance) is reported as 1594.7 ± 2.1 kg/m3, the Normal melting temperature ([1]; DTA) is reported as 201.56 ± 1.1 °C and the “Molar enthalpy of transition or fusion” value [2] is reported as 8.27 ± 0.263 kcal/mol.
